Test results: the NIST ThermoML archive (doi:10.1016/j.jct.2012.11.014)
Numbers after ± are expanded uncertainties.

Assay: xn = mol fraction of the nth substance listed
Details: 101 kPa, Liquid; for speed of sound: Frequency=2 MHz, Linear variable-path acoustic interferometer; for viscosity: Oscillating disk viscometry; for mass density: Vibrating tube method

C[NH+](C)C.O=S(=O)([O-])O [trimethylammonium hydrogen sulfate] + C[S+](C)[O-]
Details	mass density, 298.15 K [kg/m3]	mass density, 303.15 K [kg/m3]	speed of sound, 298.15 K [m/s]	speed of sound, 303.15 K [m/s]	viscosity, 298.15 K [mPa·s]	viscosity, 303.15 K [mPa·s]
x1 = 0.013	1102.89 ± 1	1099.96 ± 1	1498 ± 3	1475 ± 3	2.07 ± 0.13	1.89 ± 0.12
x1 = 0.0356	1115.76 ± 1	1112.84 ± 1	1499 ± 3	1477 ± 3	2.23 ± 0.14	2.03 ± 0.13
x1 = 0.0539	1125.92 ± 1.1	1122.95 ± 1.1	1501 ± 3	1479 ± 3	2.36 ± 0.15	2.15 ± 0.13
x1 = 0.0982	1149.81 ± 1.1	1146.81 ± 1.1	1504 ± 3	1485 ± 3	2.62 ± 0.16	2.39 ± 0.15
x1 = 0.1259	1164.24 ± 1.1	1161.18 ± 1.1	1507 ± 3	1488 ± 3	2.75 ± 0.17	2.54 ± 0.16
x1 = 0.1608	1181.78 ± 1.1	1178.69 ± 1.1	1511 ± 3	1492 ± 3	2.91 ± 0.18	2.69 ± 0.17
x1 = 0.1982	1199.92 ± 1.1	1196.87 ± 1.1	1514 ± 3	1496 ± 3	3.09 ± 0.19	2.85 ± 0.18
x1 = 0.2422	1220.26 ± 1.1	1217.02 ± 1.1	1519 ± 3	1501 ± 3	3.3 ± 0.21	3.02 ± 0.19
x1 = 0.2956	1243.91 ± 1.1	1240.65 ± 1.1	1522 ± 3	1506 ± 3	3.52 ± 0.22	3.22 ± 0.2
x1 = 0.3855	1281.02 ± 1.1	1277.68 ± 1.1	1528 ± 3	1514 ± 3	3.84 ± 0.24	3.51 ± 0.22
x1 = 0.4611	1309.82 ± 1.1	1306.38 ± 1.1	1533 ± 3	1522 ± 3	4.07 ± 0.26	3.71 ± 0.23
x1 = 0.545	1339.48 ± 1.1	1336.01 ± 1.1	1536 ± 3	1528 ± 3	4.3 ± 0.27	3.88 ± 0.25
x1 = 0.6387	1370.13 ± 1.1	1366.49 ± 1.1	1542 ± 3	1532 ± 3	4.51 ± 0.29	4.05 ± 0.26
x1 = 0.7076	1391.08 ± 1.1	1387.36 ± 1.1	1546 ± 3	1538 ± 3	4.64 ± 0.3	4.15 ± 0.27
x1 = 0.7823	1412.52 ± 1.1	1408.73 ± 1.1	1548 ± 3	1540 ± 3	4.78 ± 0.31	4.26 ± 0.27
x1 = 0.8444	1429.25 ± 1.1	1425.42 ± 1.1	1552 ± 3	1545 ± 3	4.86 ± 0.31	4.32 ± 0.28
x1 = 0.907	1445.39 ± 1.1	1441.51 ± 1.1	1556 ± 3	1551 ± 3	4.95 ± 0.32	4.38 ± 0.28
x1 = 0.9524	1456.38 ± 1.1	1452.45 ± 1.1	1559 ± 3	1556 ± 3	5.02 ± 0.32	4.43 ± 0.29
x1 = 1	1467.58 ± 1.2	1463.57 ± 1.2	1564 ± 3	1560 ± 3	5.1 ± 0.33	4.48 ± 0.29
